This note sets out measurements from paper PMC5218480 (PLoS ONE, 2017).

In this experiment the test system is MV-4-11 cells. Put plainly: Gene expression microarray analysis (Affymetrix PrimeView) and GSEA. Format: cell-based, human. More on the design: RFU PODN (11730768_x_at) / Fold change /veh PODN (11730768_x_at) / RFU LINC00158 (11744669_a_at) / Fold change /veh LINC00158 (11744669_a_at) / RFU DUSP10 (11751237_a_at) / Fold change /veh DUSP10 (11751237_a_at) / RFU ID3 (11757404_x_at) / Fold change /veh ID3 (11757404_x_at) / RFU PLEKHG5 (11737974_s_at) / Fold change /veh PLEKHG5 (11737974_s_at) / RFU LRRC4B (11730491_at) / Fold change /veh LRRC4B (11730491_at) / RFU GIMAP4 (11747438_a_at) / Fold change /veh GIMAP4 (11747438_a_at) / RFU KRT8 (11758183_x_at) / Fold change /veh KRT8 (11758183_x_at) / RFU CNN1 (11734310_a_at) / Fold change /veh CNN1 (11734310_a_at) / RFU VPS37D (11726825_at) / Fold change /veh VPS37D (11726825_at) / RFU C10orf10 (11716522_x_at) / Fold change /veh C10orf10 (11716522_x_at) / RFU KIR2DL2 /// KIR2DL4 /// KIR2DL5A /// KIR2DL5B /// KIR2DS1 /// KIR2DS2 /// KIR2DS3 /// KIR2DS4 /// KIR3DL3 /// KIR3DL3 /// KIR3DS1 (11738374_at) / Fold change /veh KIR2DL2 /// KIR2DL4 /// KIR2DL5A /// KIR2DL5B /// KIR2DS1 /// KIR2DS2 /// KIR2DS3 /// KIR2DS4 /// KIR3DL3 /// KIR3DL3 /// KIR3DS1 (11738374_at) / RFU C1QL1 (11718748_at) / Fold change /veh C1QL1 (11718748_at) / RFU TMPRSS4 (11747572_a_at) / Fold change /veh TMPRSS4 (11747572_a_at) / RFU HAMP (11756126_x_at) / Fold change /veh HAMP (11756126_x_at) / RFU RNFT2 (11725882_a_at) / Fold change /veh RNFT2 (11725882_a_at) / RFU NR4A2 (11747474_a_at) / Fold change /veh NR4A2 (11747474_a_at) / RFU ABCC12 (11746883_a_at) / Fold change /veh ABCC12 (11746883_a_at) / RFU TMEM136 (11760407_x_at) / Fold change /veh TMEM136 (11760407_x_at) / RFU CLDN22 /// WWC2 (11732394_at) / Fold change /veh CLDN22 /// WWC2 (11732394_at) / RFU HLA-DPB1 (11760878_x_at) / Fold change /veh HLA-DPB1 (11760878_x_at) / RFU SPINT1 (11716480_a_at) / Fold change /veh SPINT1 (11716480_a_at) / RFU GAP43 (11754022_s_at) / Fold change /veh GAP43 (11754022_s_at) / RFU A4GNT (11735810_at) / Fold change /veh A4GNT (11735810_at) / RFU PRB3 (11715151_x_at) / Fold change /veh PRB3 (11715151_x_at) / RFU TUBB4B (11761932_at) / Fold change /veh TUBB4B (11761932_at) / RFU CAPN14 (11732068_a_at) / Fold change /veh CAPN14 (11732068_a_at) / RFU TMCC2 (11721928_a_at) / Fold change /veh TMCC2 (11721928_a_at) / RFU IRGQ (11745062_a_at) / Fold change /veh IRGQ (11745062_a_at) / RFU FAM174B (11720279_a_at) / Fold change /veh FAM174B (11720279_a_at) / RFU TMPRSS4 (11748680_a_at) / Fold change /veh TMPRSS4 (11748680_a_at) / RFU FAM212B (11763350_a_at) / Fold change /veh FAM212B (11763350_a_at) / RFU PLEKHG5 (11743358_a_at) / Fold change /veh PLEKHG5 (11743358_a_at) / RFU ZSCAN30 (11745921_a_at) / Fold change /veh ZSCAN30 (11745921_a_at) / RFU CMKLR1 (11741424_a_at) / Fold change /veh CMKLR1 (11741424_a_at) / RFU LOC101060620 /// MAPK8IP1 (11723275_at) / Fold change /veh LOC101060620 /// MAPK8IP1 (11723275_at) / RFU SPTSSB (11747773_x_at) / Fold change /veh SPTSSB (11747773_x_at) / RFU PRSS12 (11739890_at) / Fold change /veh PRSS12 (11739890_at) / RFU BIN1 (11741810_x_at) / Fold change /veh BIN1 (11741810_x_at) / RFU WNT11 (11732464_a_at) / Fold change /veh WNT11 (11732464_a_at) / RFU C10orf10 (11716521_a_at) / Fold change /veh C10orf10 (11716521_a_at) / RFU C5orf56 (11738089_at) / Fold change /veh C5orf56 (11738089_at) / RFU CYB561 (11721691_x_at) / Fold change /veh CYB561 (11721691_x_at) / RFU ANKRD19P (11752326_a_at) / Fold change /veh ANKRD19P (11752326_a_at) / RFU OR2T12 /// OR2T33 /// OR2T8 (11738714_s_at) / Fold change /veh OR2T12 /// OR2T33 /// OR2T8 (11738714_s_at) / RFU VCAN (11748164_a_at) / Fold change /veh VCAN (11748164_a_at) / RFU JSRP1 (11732532_at) / Fold change /veh JSRP1 (11732532_at) / RFU KRTAP10-11 (11738290_x_at) / Fold change /veh KRTAP10-11 (11738290_x_at) / RFU MYO3A (11730013_a_at) / Fold change /veh MYO3A (11730013_a_at) / RFU EBF3 (11725865_a_at) / Fold change /veh EBF3 (11725865_a_at) / RFU CAMK2N1 (11719241_x_at) / Fold change /veh CAMK2N1 (11719241_x_at) / RFU C5orf56 (11738088_a_at) / Fold change /veh C5orf56 (11738088_a_at) / RFU OLFML3 (11715873_a_at) / Fold change /veh OLFML3 (11715873_a_at) / RFU LOC100653217 /// NTM (11731650_a_at) / Fold change /veh LOC100653217 /// NTM (11731650_a_at) / RFU MAPK11 (11762145_a_at) / Fold change /veh MAPK11 (11762145_a_at) / RFU FIZ1 (11724087_x_at) / Fold change /veh FIZ1 (11724087_x_at) / RFU OASL (11726364_x_at) / Fold change /veh OASL (11726364_x_at) / RFU SOX15 (11748057_x_at) / Fold change /veh SOX15 (11748057_x_at) / RFU CD79A (11719716_a_at) / Fold change /veh CD79A (11719716_a_at) / RFU HIST1H1D (11736915_at) / Fold change /veh HIST1H1D (11736915_at) / RFU CASKIN2 (11723855_a_at) / Fold change /veh CASKIN2 (11723855_a_at) / RFU LOC730098 (11760151_x_at) / Fold change /veh LOC730098 (11760151_x_at) / RFU OR4N2 (11742367_at) / Fold change /veh OR4N2 (11742367_at) / RFU PRRT2 (11749266_a_at) / Fold change /veh PRRT2 (11749266_a_at) / RFU SNX32 (11753110_a_at) / Fold change /veh SNX32 (11753110_a_at) / RFU CDHR5 (11726645_a_at) / Fold change /veh CDHR5 (11726645_a_at) / RFU RCAN1 (11760418_a_at) / Fold change /veh RCAN1 (11760418_a_at) / RFU FAM167A (11723789_a_at) / Fold change /veh FAM167A (11723789_a_at) / RFU FAM26E (11764081_at) / Fold change /veh FAM26E (11764081_at) / RFU ISYNA1 (11749810_s_at) / Fold change /veh ISYNA1 (11749810_s_at) / RFU ACY1 (11761880_at) / Fold change /veh ACY1 (11761880_at) / RFU 11764098_at / Fold change /veh 11764098_at / RFU SAMD14 (11745864_x_at) / Fold change /veh SAMD14 (11745864_x_at) / RFU NPB (11741838_a_at) / Fold change /veh NPB (11741838_a_at) / RFU TMPRSS6 (11731388_a_at) / Fold change /veh TMPRSS6 (11731388_a_at) / RFU KRTAP10-2 (11738614_at) / Fold change /veh KRTAP10-2 (11738614_at) / RFU ARHGAP8 /// PRR5-ARHGAP8 (11727945_x_at) / Fold change /veh ARHGAP8 /// PRR5-ARHGAP8 (11727945_x_at) / RFU KRTAP5-7 /// NADSYN1 (11734609_at) / Fold change /veh KRTAP5-7 /// NADSYN1 (11734609_at) / RFU RASL12 (11751679_a_at) / Fold change /veh RASL12 (11751679_a_at) / RFU CDKN2B (11736163_a_at) / Fold change /veh CDKN2B (11736163_a_at) / RFU PRF1 (11729649_at) / Fold change /veh PRF1 (11729649_at) / RFU, ZNF638 /// ZNF638-IT1 / Fold change vs veh, ZNF638 /// ZNF638-IT1 / RFU, PANK3 / Fold change vs veh, PANK3 / RFU, SH3YL1 / Fold change vs veh, SH3YL1 / RFU, ZEB2 / Fold change vs veh, ZEB2 / RFU, NRIP1 / Fold change vs veh, NRIP1 / RFU, PTTG1IP / Fold change vs veh, PTTG1IP / RFU, CAPN2 / Fold change vs veh, CAPN2 / RFU, MED14 / Fold change vs veh, MED14 / RFU, SNORA58 / Fold change vs veh, SNORA58 / RFU, C1orf63 / Fold change vs veh, C1orf63 / RFU, LRRFIP1 / Fold change vs veh, LRRFIP1 / RFU, NDUFAF7 / Fold change vs veh, NDUFAF7 / RFU, SLC12A2 / Fold change vs veh, SLC12A2 / RFU, IBTK / Fold change vs veh, IBTK / RFU, ESF1 / Fold change vs veh, ESF1 / Fold change vs veh, TMEM50B / RFU, TAOK1 / Fold change vs veh, TAOK1 / RFU, ACBD3 / Fold change vs veh, ACBD3 / RFU, TMA16 / Fold change vs veh, TMA16 / RFU, RWDD3 / Fold change vs veh, RWDD3 / RFU, BCAT1 / Fold change vs veh, BCAT1 / RFU, EDEM3 / Fold change vs veh, EDEM3 / RFU, TMEM33 / Fold change vs veh, TMEM33 / RFU, WDR75 / Fold change vs veh, WDR75 / RFU, AHCTF1 / Fold change vs veh, AHCTF1 / RFU, TFRC / Fold change vs veh, TFRC / RFU, ZDHHC17 / Fold change vs veh, ZDHHC17 / RFU, NOM1 / Fold change vs veh, NOM1 / RFU, ARL8B / Fold change vs veh, ARL8B / RFU, ZBTB11 / Fold change vs veh, ZBTB11 / RFU, TAMM41 / Fold change vs veh, TAMM41 / RFU, KIAA1704 /// LOC100996395 / Fold change vs veh, KIAA1704 /// LOC100996395 / RFU, ING1 / Fold change vs veh, ING1 / RFU, TRMT61B / Fold change vs veh, TRMT61B / RFU, FUBP3 / Fold change vs veh, FUBP3 / RFU, TP53 / Fold change vs veh, TP53 / RFU, TNKS2 / Fold change vs veh, TNKS2 / RFU, ZFP14 / Fold change vs veh, ZFP14 / RFU, ACTR2 / Fold change vs veh, ACTR2 / RFU, PPP3R1 / Fold change vs veh, PPP3R1 / RFU, PIK3R1 / Fold change vs veh, PIK3R1 / RFU, HNRNPA1 / Fold change vs veh, HNRNPA1 / RFU, RNF170 / Fold change vs veh, RNF170 / RFU, ZNF28 / Fold change vs veh, ZNF28 / RFU, RNGTT / Fold change vs veh, RNGTT / RFU, OGT / Fold change vs veh, OGT / RFU, BRD1 / Fold change vs veh, BRD1 / RFU, MARS / Fold change vs veh, MARS / RFU, ZNF655 / Fold change vs veh, ZNF655 / RFU, FAHD1 / Fold change vs veh, FAHD1 / RFU, BDP1 / Fold change vs veh, BDP1 / RFU, LRRCC1 / Fold change vs veh, LRRCC1 / RFU, ARID1A / Fold change vs veh, ARID1A / RFU, ZNF146 / Fold change vs veh, ZNF146 / RFU, ZNF330 / Fold change vs veh, ZNF330 / RFU, GPN3 / Fold change vs veh, GPN3 / RFU, C9orf123 / Fold change vs veh, C9orf123 / RFU, N4BP2L2 / Fold change vs veh, N4BP2L2 / RFU, ARFIP1 / Fold change vs veh, ARFIP1 / RFU, FAM179B / Fold change vs veh, FAM179B / RFU, BCL10 / Fold change vs veh, BCL10 / RFU, UHRF1BP1L / Fold change vs veh, UHRF1BP1L / RFU, BET1 / Fold change vs veh, BET1 / RFU, CNOT2 / Fold change vs veh, CNOT2 / RFU, ZNF268 / Fold change vs veh, ZNF268 / Fold change vs veh, ZNF507 / RFU, DGCR2 / Fold change vs veh, DGCR2 / RFU, WDSUB1 / Fold change vs veh, WDSUB1 / Fold change vs veh, HSP90B1 /// MIR3652 / RFU, ADSS / Fold change vs veh, ADSS / RFU, GK / Fold change vs veh, GK / RFU, ZNF148 / Fold change vs veh, ZNF148 / RFU, TAF9 / Fold change vs veh, TAF9 / RFU, SLC1A5 / Fold change vs veh, SLC1A5 / RFU, SLMO2 / Fold change vs veh, SLMO2 / RFU, ABCC4 / Fold change vs veh, ABCC4 / RFU, LOC101060439 /// RAP1B / Fold change vs veh, LOC101060439 /// RAP1B / RFU, RFX7 / Fold change vs veh, RFX7 / RFU, GTPBP10 / Fold change vs veh, GTPBP10 / RFU, CNEP1R1 / Fold change vs veh, CNEP1R1 / RFU, BIVM-ERCC5 /// ERCC5 / Fold change vs veh, BIVM-ERCC5 /// ERCC5 / RFU, ILF3 / Fold change vs veh, ILF3 / RFU 11762660_at / Fold change /veh 11762660_at / RFU VCAN (11757783_s_at) / Fold change /veh VCAN (11757783_s_at) / RFU DDX43 (11728927_at) / Fold change /veh DDX43 (11728927_at) / RFU KRT8 (11758188_x_at) / Fold change /veh KRT8 (11758188_x_at) / RFU NKD1 (11759106_at) / Fold change /veh NKD1 (11759106_at) / RFU SRD5A1 (11742802_a_at) / Fold change /veh SRD5A1 (11742802_a_at) / RFU TPSAB1 /// TPSB2 (11721975_s_at) / Fold change /veh TPSAB1 /// TPSB2 (11721975_s_at) / RFU GSTM3 (11746129_a_at) / Fold change /veh GSTM3 (11746129_a_at) / RFU IL23R (11737362_x_at) / Fold change /veh IL23R (11737362_x_at) / RFU TMEM51 (11727254_a_at) / Fold change /veh TMEM51 (11727254_a_at) / RFU PIWIL2 (11732686_x_at) / Fold change /veh PIWIL2 (11732686_x_at) / RFU ORM1 (11744905_x_at) / Fold change /veh ORM1 (11744905_x_at) / RFU CCDC152 (11743942_at) / Fold change /veh CCDC152 (11743942_at) / RFU ECM1 (11717891_a_at) / Fold change /veh ECM1 (11717891_a_at) / RFU IL23R (11748794_a_at) / Fold change /veh IL23R (11748794_a_at) / RFU TNFAIP8L3 (11732012_x_at) / Fold change /veh TNFAIP8L3 (11732012_x_at) / RFU MBOAT4 (11741988_at) / Fold change /veh MBOAT4 (11741988_at) / RFU 11764193_at / Fold change /veh 11764193_at / RFU TMEM53 (11763286_at) / Fold change /veh TMEM53 (11763286_at) / RFU MAGEB2 (11727129_at) / Fold change /veh MAGEB2 (11727129_at) / RFU TMEM200A (11744735_a_at) / Fold change /veh TMEM200A (11744735_a_at) / RFU CCDC152 (11751479_a_at) / Fold change /veh CCDC152 (11751479_a_at) / RFU FAM211A (11726209_a_at) / Fold change /veh FAM211A (11726209_a_at) / RFU RGS16 (11746705_a_at) / Fold change /veh RGS16 (11746705_a_at) / RFU VCAN (11755009_s_at) / Fold change /veh VCAN (11755009_s_at) / RFU RHOB (11743442_s_at) / Fold change /veh RHOB (11743442_s_at) / RFU RGS16 (11720943_a_at) / Fold change /veh RGS16 (11720943_a_at) / RFU RGS16 (11720944_at) / Fold change /veh RGS16 (11720944_at) / RFU, VPS4B / Fold change vs veh, VPS4B / RFU, CREB1 / Fold change vs veh, CREB1 / RFU, DNAJC13 / Fold change vs veh, DNAJC13 / RFU, GNAQ / Fold change vs veh, GNAQ / RFU, CDK5R1 / Fold change vs veh, CDK5R1 / RFU, ZRANB3 / Fold change vs veh, ZRANB3 / RFU, CUL4A / Fold change vs veh, CUL4A / RFU, CCNY / Fold change vs veh, CCNY / RFU, UFL1 / Fold change vs veh, UFL1 / RFU, COG3 / Fold change vs veh, COG3 / RFU, DIAPH2 / Fold change vs veh, DIAPH2 / RFU, SKA2 / Fold change vs veh, SKA2 / RFU, AFF3 / Fold change vs veh, AFF3 / RFU, LMF1 / Fold change vs veh, LMF1 / RFU, IPO11 / Fold change vs veh, IPO11 / RFU, DFFB / Fold change vs veh, DFFB / RFU, FOXP1 / Fold change vs veh, FOXP1 / RFU, CARD8 / Fold change vs veh, CARD8 / RFU, STRN3 / Fold change vs veh, STRN3 / RFU, ADK / Fold change vs veh, ADK / RFU, RASSF2 / Fold change vs veh, RASSF2 / RFU, WIPF1 / Fold change vs veh, WIPF1 / RFU, LARP1B / Fold change vs veh, LARP1B / RFU, RASA1 / Fold change vs veh, RASA1 / RFU, RB1 / Fold change vs veh, RB1 / RFU, PPFIA1 / Fold change vs veh, PPFIA1 / RFU, MAT2A / Fold change vs veh, MAT2A / RFU, CCT5 / Fold change vs veh, CCT5 / RFU, WDR92 / Fold change vs veh, WDR92 / RFU, CUX1 / Fold change vs veh, CUX1 / RFU, TTC7A / Fold change vs veh, TTC7A / RFU, TMEM135 / Fold change vs veh, TMEM135 / RFU, DEPTOR / Fold change vs veh, DEPTOR / RFU, CPM / Fold change vs veh, CPM / RFU, DNAJB6 / Fold change vs veh, DNAJB6 / RFU, CACNA2D3 / Fold change vs veh, CACNA2D3 / RFU, DTX4 / Fold change vs veh, DTX4 / RFU, TFCP2 / Fold change vs veh, TFCP2 / RFU, GMCL1 /// GMCL1P1 / Fold change vs veh, GMCL1 /// GMCL1P1 / RFU, AEBP2 / Fold change vs veh, AEBP2 / RFU, SNHG1 /// SNORD22 /// SNORD25 /// SNORD26 /// SNORD27 /// SNORD28 /// SNORD29 /// SNORD31 / Fold change vs veh, SNHG1 /// SNORD22 /// SNORD25 /// SNORD26 /// SNORD27 /// SNORD28 /// SNORD29 /// SNORD31 / Fold change (Aza/veh), C12orf56 (ProbeSet 11735607_a_at) / Fold change (ACY-1035/veh), C12orf56 (ProbeSet 11735607_a_at) / Fold change (Aza/veh), FGFR1OP (ProbeSet 11751329_s_at) / Fold change (ACY-1035/veh), FGFR1OP (ProbeSet 11751329_s_at) / Fold change (Aza/veh), VPS36 (ProbeSet 11739960_a_at) / Fold change (ACY-1035/veh), VPS36 (ProbeSet 11739960_a_at) / RFU SYPL1 (11715823_x_at) / Fold change /veh SYPL1 (11715823_x_at) / RFU IGFBP7 (11715501_s_at) / Fold change /veh IGFBP7 (11715501_s_at) / RFU REEP3 (11722064_at) / Fold change /veh REEP3 (11722064_at) / RFU IGLL1 (11728026_x_at) / Fold change /veh IGLL1 (11728026_x_at): dose or concentration left out as unconfirmed. The settings on record: ProbeSet 11748670_a_at; LIST B.

Regarding `Nc1ncn([C@@H]2O[C@H](CO)[C@@H](O)[C@H]2O)c(=O)n1` [azacitidine], the “Fold change vs veh, PIK3R1” value is reported as 1.03.
